From ChEMBL document CHEMBL1201862, “PubChem BioAssay data set” (2004)
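48-hour exposure; five concentrations; linearly interpolated endpoints. Here, GI50 denotes the concentration required for 50% inhibition of growth.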 Calls of active or inactive are those of the source. Rule as the data show it: active = GI50 up to about 1.1 µM and inactive = higher. Where a SMILES comes first, the peptide text is derived from it. The star is where a group is joined. Boc = CC(C)(C)OC(=O)*

Key:
Assay in all cases: NCI-60 cell line screen, 48 h
SN12C = tested on: SN12C
786-0 = tested on: 786-0
OVCAR-5 = tested on: OVCAR-5
SK-MEL-2 = tested on: SK-MEL-2
Malme-3M = tested on: Malme-3M
HOP-92 = tested on: HOP-92
SK-MEL-28 = tested on: SK-MEL-28
NCI-H460 = tested on: NCI-H460
OVCAR-3 = tested on: OVCAR-3
NCI/ADR-RES = tested on: NCI/ADR-RES
KM12 = tested on: KM12
HCT-15 = tested on: HCT-15
MOLT-4 = tested on: MOLT-4
ACHN = tested on: ACHN
Hs-578T = tested on: Hs-578T
HT-29 = tested on: HT-29
SW-620 = tested on: SW-620
MDA-MB-435 = tested on: MDA-MB-435
MDA-MB-231 = tested on: MDA-MB-231
SF-268 = tested on: SF-268

SMILES	GI50 (SN12C)	GI50 (786-0)	GI50 (OVCAR-5)	GI50 (SK-MEL-2)	GI50 (Malme-3M)	GI50 (HOP-92)	GI50 (SK-MEL-28)	GI50 (NCI-H460)	GI50 (OVCAR-3)	GI50 (NCI/ADR-RES)	GI50 (KM12)	GI50 (HCT-15) [µM]	GI50 (MOLT-4)	GI50 (ACHN)	GI50 (Hs-578T)	GI50 (HT-29)	GI50 (SW-620)	GI50 (MDA-MB-435)	GI50 (MDA-MB-231)	GI50 (SF-268)
COc1cc(/C=C2\C(=O)N(Cc3ccccc3)C(c3ccccc3)S2(=O)=O)cc(OC)c1OC (stereo not given)	74 µM (inactive)	29.6 µM (inactive)	> 100 µM (inactive)	27.1 µM (inactive)	39.9 µM (inactive)	50.2 µM (inactive)	93.8 µM (inactive)	35.4 µM (inactive)	47.3 µM (inactive)	27.6 µM (inactive)	34.7 µM (inactive)	27.5	4.11 µM (inactive)	67.3 µM (inactive)	9.73 µM (inactive)	51.6 µM (inactive)	79.1 µM (inactive)	41.9 µM (inactive)	> 100 µM (inactive)	31.3 µM (inactive)
CC(C)(C)c1ccc2c(c1)C#Cc1cc3c(cc1OCCCO2)C#Cc1cc(C(C)(C)C)ccc1OCCCO3	> 100 µM (inactive)	> 100 µM (inactive)	> 100 µM (inactive)	> 100 µM (inactive)	> 100 µM (inactive)	> 100 µM (inactive)	> 100 µM (inactive)	> 100 µM (inactive)	> 100 µM (inactive)	10.6 µM (inactive)	> 100 µM (inactive)	2.45	> 100 µM (inactive)	> 100 µM (inactive)	> 100 µM (inactive)	> 100 µM (inactive)	> 100 µM (inactive)	> 100 µM (inactive)	> 100 µM (inactive)	> 100 µM (inactive)
COC(=O)CNC(=O)C(Cc1ccccc1)NC(=O)C(CCSC)NC(=O)C(Cc1ccc(O)cc1)NC(=O)OC(C)(C)C (stereo not given) (Boc-YMFG-OMe; configuration not given here)	45.3 µM (inactive)	> 100 µM (inactive)	> 100 µM (inactive)	18.1 µM (inactive)	> 100 µM (inactive)	26.4 µM (inactive)	18.2 µM (inactive)	> 100 µM (inactive)	16.9 µM (inactive)	> 100 µM (inactive)	> 100 µM (inactive)	> 100	17.5 µM (inactive)	> 100 µM (inactive)	> 100 µM (inactive)	33 µM (inactive)	40.3 µM (inactive)	> 100 µM (inactive)	24.5 µM (inactive)	29.7 µM (inactive)
O=C(O)c1ccc(Nc2ccnc3cc(Cl)ccc23)cc1O	> 100 µM (inactive)	> 100 µM (inactive)	> 100 µM (inactive)	> 100 µM (inactive)	> 100 µM (inactive)	> 100 µM (inactive)	> 100 µM (inactive)	> 100 µM (inactive)	> 100 µM (inactive)	> 100 µM (inactive)	> 100 µM (inactive)	> 100	> 100 µM (inactive)	> 100 µM (inactive)	> 100 µM (inactive)	> 100 µM (inactive)	> 100 µM (inactive)	> 100 µM (inactive)	> 100 µM (inactive)	> 100 µM (inactive)
Cc1cccc(/C=N/NC(=S)Nc2ccc(Cl)cc2)n1	3.4 µM (inactive)	1.63 µM (inactive)	15.7 µM (inactive)	1.35 µM (inactive)	0.665 µM (active)	3 µM (inactive)	3.39 µM (inactive)	0.635 µM (active)	0.968 µM (active)	0.527 µM (active)	0.977 µM (active)	0.519	1.17 µM (inactive)	1.12 µM (active)	2.18 µM (inactive)	1.03 µM (active)	0.46 µM (active)	0.205 µM (active)	0.897 µM (active)	2.61 µM (inactive)
CCN1CCC(O)(c2ccc(Oc3ccccc3)cc2)C(C(=O)c2ccc(Oc3ccccc3)cc2)C1 (stereo not given)	15.3 µM (inactive)	5.5 µM (inactive)	15.4 µM (inactive)	15.1 µM (inactive)	17.1 µM (inactive)	8.87 µM (inactive)	13.6 µM (inactive)	3.85 µM (inactive)	14.8 µM (inactive)	16.2 µM (inactive)	4.85 µM (inactive)	12.2	13 µM (inactive)	15.5 µM (inactive)	23.7 µM (inactive)	6.98 µM (inactive)	12.1 µM (inactive)	12.9 µM (inactive)	14.6 µM (inactive)	16.3 µM (inactive)
Cc1ccc(S(=O)(=O)c2ccc([N+](=O)[O-])o2)cc1	7.73 µM (inactive)	1.67 µM (inactive)	2.01 µM (inactive)	9.89 µM (inactive)	1.08 µM (active)	2.38 µM (inactive)	1.98 µM (inactive)	14.1 µM (inactive)	1.76 µM (inactive)	2.25 µM (inactive)	4.43 µM (inactive)	1.17	0.337 µM (active)	1.59 µM (inactive)	2.53 µM (inactive)	1.7 µM (inactive)	0.468 µM (active)	1.81 µM (inactive)	2.21 µM (inactive)	11.1 µM (inactive)
O=C(O)CSc1ncccc1[N+](=O)[O-]	> 100 µM (inactive)	> 100 µM (inactive)	> 100 µM (inactive)	> 100 µM (inactive)	> 100 µM (inactive)	> 100 µM (inactive)	> 100 µM (inactive)	> 100 µM (inactive)	> 100 µM (inactive)	> 100 µM (inactive)	> 100 µM (inactive)	> 100	> 100 µM (inactive)	> 100 µM (inactive)	> 100 µM (inactive)	> 100 µM (inactive)	> 100 µM (inactive)	> 100 µM (inactive)	> 100 µM (inactive)	> 100 µM (inactive)
Cc1ccc2c(c1)-c1c(C#N)c(N)nc(-c3ccc(Cl)cc3)c1CCS2(=O)=O	10.9 µM (inactive)	6.19 µM (inactive)	49.9 µM (inactive)	8.67 µM (inactive)	5.07 µM (inactive)	44.5 µM (inactive)	20.6 µM (inactive)	3.85 µM (inactive)	3.94 µM (inactive)	4.48 µM (inactive)	3.48 µM (inactive)	4.6	4.99 µM (inactive)	8.77 µM (inactive)	6.15 µM (inactive)	3.61 µM (inactive)	5.81 µM (inactive)	2.52 µM (inactive)	12.3 µM (inactive)	20.1 µM (inactive)
COc1cccc2c1C(=O)c1c(O)c3c(c(O)c1C2=O)C[C@@](O)(/C(C)=N/NC(=O)c1ccc(Cl)c(Cl)c1)C[C@@H]3OC1CC(N)C(O)C(C)O1 (stereo not given in full)	0.101 µM (active)	0.191 µM (active)	0.374 µM (active)	0.718 µM (active)	0.0237 µM (active)	0.424 µM (active)	0.0676 µM (active)	0.067 µM (active)	0.226 µM (active)	0.532 µM (active)	0.205 µM (active)	0.219	< 0.01 µM (active)	0.0364 µM (active)	0.528 µM (active)	0.071 µM (active)	0.0923 µM (active)	0.27 µM (active)	0.711 µM (active)	0.296 µM (active)
COc1ccc([C@@]23Oc4cc(OC)cc(OC)c4[C@]2(O)[C@H](O)[C@H](C(=O)N(C)C)[C@H]3c2ccccc2)cc1 [ROCAGLAMIDE]	0.00815 µM (active)	0.00953 µM (active)	0.00991 µM (active)	0.0197 µM (active)	0.00429 µM (active)	0.0138 µM (active)	0.00689 µM (active)	0.0027 µM (active)	0.056 µM (active)	0.0306 µM (active)	0.00294 µM (active)	0.0176	0.00192 µM (active)	0.00344 µM (active)	0.00875 µM (active)	0.00224 µM (active)	0.00299 µM (active)	0.0036 µM (active)	0.00776 µM (active)	0.00849 µM (active)
O=c1[nH]c(=O)n([C@H]2C[C@H](O)[C@@H](CO)O2)cc1Br [BROXURIDINE]	> 100 µM (inactive)	> 100 µM (inactive)	> 100 µM (inactive)	> 100 µM (inactive)	> 85.9 µM (inactive)	> 100 µM (inactive)	> 86.5 µM (inactive)	> 100 µM (inactive)	25.9 µM (inactive)	> 100 µM (inactive)	> 100 µM (inactive)	> 63.5	> 100 µM (inactive)	> 100 µM (inactive)	> 100 µM (inactive)	> 100 µM (inactive)	> 100 µM (inactive)	> 100 µM (inactive)	> 100 µM (inactive)	> 100 µM (inactive)
Nc1nc(NCC2(CO)CC2)cc(=O)[nH]1	> 100 µM (inactive)	> 100 µM (inactive)	> 100 µM (inactive)	> 100 µM (inactive)	> 100 µM (inactive)	> 100 µM (inactive)	> 100 µM (inactive)	> 100 µM (inactive)	> 100 µM (inactive)	> 100 µM (inactive)	> 100 µM (inactive)	> 100	> 100 µM (inactive)	> 100 µM (inactive)	> 100 µM (inactive)	> 100 µM (inactive)	> 100 µM (inactive)	> 100 µM (inactive)	> 100 µM (inactive)	> 100 µM (inactive)
Oc1ccccc1-c1nn2c(CCCCCCCCc3nnc4sc(-c5ccccc5O)nn34)nnc2s1	19.5 µM (inactive)	14.7 µM (inactive)	6.27 µM (inactive)	15.9 µM (inactive)	35 µM (inactive)	19.1 µM (inactive)	24.6 µM (inactive)	8.05 µM (inactive)	14.4 µM (inactive)	12 µM (inactive)	21 µM (inactive)	7.6	8.39 µM (inactive)	12 µM (inactive)	8.57 µM (inactive)	11.1 µM (inactive)	27.9 µM (inactive)	5.18 µM (inactive)	17.3 µM (inactive)	19 µM (inactive)
